Measurements published in patent publication EP3623369A1, “NOVEL MORPHOLINYL AMINE COMPOUNDS FOR THE TREATMENT OF AUTOIMMUNE DISEASE” (F. Hoffmann-La Roche AG, priority 2018, dated 2020).

Molecular target: T1, hTLR7 (Homo sapiens, UniProt Q9NYK1)
T1 sequence (Q9NYK1 27-1049): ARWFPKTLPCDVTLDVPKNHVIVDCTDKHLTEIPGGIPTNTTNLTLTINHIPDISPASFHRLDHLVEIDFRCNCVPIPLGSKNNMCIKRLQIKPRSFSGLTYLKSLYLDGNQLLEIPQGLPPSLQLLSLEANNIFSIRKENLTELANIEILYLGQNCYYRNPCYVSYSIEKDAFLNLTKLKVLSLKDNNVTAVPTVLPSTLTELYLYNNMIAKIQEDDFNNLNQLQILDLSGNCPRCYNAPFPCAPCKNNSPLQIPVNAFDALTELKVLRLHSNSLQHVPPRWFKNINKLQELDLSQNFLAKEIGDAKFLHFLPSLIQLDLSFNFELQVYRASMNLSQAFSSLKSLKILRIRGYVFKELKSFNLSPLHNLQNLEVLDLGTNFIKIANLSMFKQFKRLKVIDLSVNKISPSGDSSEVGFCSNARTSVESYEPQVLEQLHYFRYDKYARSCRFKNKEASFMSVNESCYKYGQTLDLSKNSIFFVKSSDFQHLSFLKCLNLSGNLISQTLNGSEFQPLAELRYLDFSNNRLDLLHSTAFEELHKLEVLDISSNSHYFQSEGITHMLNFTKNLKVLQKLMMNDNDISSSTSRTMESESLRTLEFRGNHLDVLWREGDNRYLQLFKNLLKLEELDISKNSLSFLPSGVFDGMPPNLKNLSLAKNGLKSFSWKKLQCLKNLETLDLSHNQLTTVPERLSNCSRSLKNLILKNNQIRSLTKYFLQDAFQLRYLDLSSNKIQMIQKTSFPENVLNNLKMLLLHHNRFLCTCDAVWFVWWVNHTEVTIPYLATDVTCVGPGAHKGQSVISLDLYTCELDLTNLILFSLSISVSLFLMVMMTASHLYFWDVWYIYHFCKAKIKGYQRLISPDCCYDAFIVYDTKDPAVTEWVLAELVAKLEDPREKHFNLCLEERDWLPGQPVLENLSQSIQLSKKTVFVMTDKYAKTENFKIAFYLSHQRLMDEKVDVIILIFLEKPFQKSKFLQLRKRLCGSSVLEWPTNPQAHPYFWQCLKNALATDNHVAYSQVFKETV
Assay: HEK293-Blue-hTLR-7 cells assay (SEAP reporter, R848 stimulation)
Assay type: cell-based
Details: HEK293-Blue-hTLR7 cells, R848, 20 hrs; 0.003 is the lowest tested concentration; read-out: HEK/hTLR7 IC50
Procedure, shortened: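 HEK293-Blue-hTLR7 cells carry an NF-κB/AP-1-driven SEAP reporter and were stimulated with R848 in the presence of serially diluted compound (1% DMSO final) for 20 hrs at 37 °C. Supernatant SEAP was measured with QUANTI-Blue after 2 hrs at 37 °C, reading absorbance at 620∼655 nm.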

## C[C@@H]1CN(c2ccc(C#N)c3ncccc23)C[C@H](CN2Cc3ccc(N4CCNC[C@@H]4CO)cc3C2)O1 [Example 82, 5-[(2S,6R)-2-[[5-[(2R)-2-(hydroxymethyl)piperazin-1-yl]isoindolin-2-yl]methyl]-6-methyl-morpholin-4-yl]quinoline-8-carbonitrile]
  IC50: 0.047 µM

## C[C@@H]1CN(c2ccc(C#N)c3ncccc23)C[C@H](CN2Cc3ccc(N4CCNC[C@H]4CO)cc3C2)O1 [Example 83, 5-[(2S,6R)-2-[[5-[(2S)-2-(hydroxymethyl)piperazin-1-yl]isoindolin-2-yl]methyl]-6-methyl-morpholin-4-yl]quinoline-8-carbonitrile]
  IC50: 0.034 µM

## C[C@@H]1CN(c2ccc(C#N)c3nccnc23)C[C@H](CNCc2ccc(N3CCNCC3)cc2)O1 [Example 84, 8-[(2R,6S)-2-methyl-6-[[(4-piperazin-1-ylphenyl)methylamino]methyl]morpholin-4-yl]quinoxaline-5-carbonitrile]
  IC50: 0.012 µM

## C[C@@H]1CN(c2ccc(C#N)c3ncccc23)C[C@H](CNCc2ccc(N3CCNCC3)cc2)O1 [Example 86, 5-[(2R,6S)-2-methyl-6-[[(4-piperazin-1-ylphenyl)methylamino]methyl]morpholin-4-yl] quinoline-8-carbonitrile]
  IC50: 0.015 µM

## C[C@@H]1CN(c2ccc(C#N)n3nccc23)C[C@H](CN2CCc3cnccc3C2)O1 [Example R1, 4-[(2S,6R)-2-(3,4-dihydro-1H-2,6-naphthyridin-2-ylmethyl)-6-methyl-morpholin-4-yl]pyrazolo[1,5-a]pyridine-7-carbonitrile, reference compound]
  IC50: 0.55 µM

## C[C@@H]1CN(c2ccc(C#N)n3nccc23)C[C@H](CN2Cc3ccncc3C2)O1 [Example R2, 4-[(2S,6R)-2-(1,3-dihydropyrrolo[3,4-c]pyridin-2-ylmethy1)-6-methyl-morpholin-4-yl]pyrazolo[1,5-a]pyridine-7-carbonitrile, reference compound]
  IC50: 0.722 µM

## C[C@@H]1CN(c2ccc(C#N)c3ncccc23)C[C@H](CN2Cc3ccccc3C2)O1 [Example R3, 5-[(2S,6R)-2-(isoindolin-2-ylmethyl)-6-methyl-morpholin-4-yl]quinoline-8-carbonitrile, reference compound]
  IC50: 0.186 µM
